Reference: the supplement of paper PMC10307832

What was measured:
Assay in all cases: relative viability (nuclei count vs DMSO), 5 days (fraction); higher = more cells survive
[1] = system: ChaGo-K-1
Method in brief: (§1)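 After 5 days of treatment, lung cancer cells in 1536-well plates were fixed and stained in a single step (final 0.05% Triton X-100, 1% formaldehyde, 1 ug/ml Hoechst) and their nuclei counted on 4× images. Treatment had been applied by pin tool the day after seeding as one drug alone or as a fixed anchor-drug dose with five library-drug doses (not always all listed) in √10 steps. Relative viability is the nuclei count of treated wells divided by that of vehicle wells, and values are medians of duplicate plates.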

[2] = system: EMC-BAC-2
Method in brief: as §1

[3] = system: EPLC-272H
Method in brief: as §1

[4] = system: H3255
Method in brief: as §1

[5] = system: HCC-44
Method in brief: as §1

[6] = system: HCC-827
Method in brief: as §1

[7] = system: LCLC-103H
Method in brief: as §1

[8] = system: LU99A
Method in brief: as §1

[9] = system: NCI-H1395
Method in brief: as §1

[10] = system: NCI-H1651
Method in brief: as §1

[11] = system: NCI-H1793
Method in brief: as §1

[12] = system: NCI-H1944
Method in brief: as §1

[13] = system: NCI-H2085
Method in brief: as §1

[14] = system: NCI-H2087
Method in brief: as §1

[15] = system: NCI-H2405
Method in brief: as §1

[16] = system: NCI-H650
Method in brief: as §1

[17] = system: NCI-H838
Method in brief: as §1

What does the source list for `O=c1cc(N2CCOCC2)oc2c(-c3cccc4c3sc3ccccc34)cccc12` + NC(=O)Nc1cc(-c2cccc(F)c2)sc1C(=O)N[C@H]1CCCNC1 [AZD7762] (partner 0.2 µM)?
relative viability ([1]; first compound 0.01 µM): 0.847; relative viability ([1]; first compound 0.03162 µM): 0.898; relative viability ([1]; first compound 0.1 µM): 0.6; relative viability ([1]; first compound 0.3162 µM): 0.831; relative viability ([1]; first compound 1 µM): 0.938; relative viability ([2]; first compound 0.01 µM): 1.09; relative viability ([2]; first compound 0.03162 µM): 1.17; relative viability ([2]; first compound 0.1 µM): 1.19; relative viability ([2]; first compound 0.3162 µM): 1.14; relative viability ([2]; first compound 1 µM): 1.11; relative viability ([3]; first compound 0.01 µM): 0.244; relative viability ([3]; first compound 0.03162 µM): 0.282; relative viability ([3]; first compound 0.1 µM): 0.12; relative viability ([3]; first compound 0.3162 µM): 0.31; relative viability ([3]; first compound 1 µM): 0.211; relative viability ([4]; first compound 0.01 µM): 0.901; relative viability ([4]; first compound 0.03162 µM): 0.933; relative viability ([4]; first compound 0.1 µM): 0.845; relative viability ([4]; first compound 0.3162 µM): 0.822; relative viability ([4]; first compound 1 µM): 0.852; relative viability ([5]; first compound 0.01 µM): 1.03; relative viability ([5]; first compound 0.03162 µM): 1.08; relative viability ([5]; first compound 0.1 µM): 0.973; relative viability ([5]; first compound 0.3162 µM): 1.01; relative viability ([5]; first compound 1 µM): 0.966; relative viability ([6]; first compound 0.01 µM): 0.26; relative viability ([6]; first compound 0.03162 µM): 0.179; relative viability ([6]; first compound 0.1 µM): 0.133; relative viability ([6]; first compound 0.3162 µM): 0.184; relative viability ([6]; first compound 1 µM): 0.261; relative viability ([7]; first compound 0.01 µM): 0.799; relative viability ([7]; first compound 0.03162 µM): 0.777; relative viability ([7]; first compound 0.1 µM): 0.804; relative viability ([7]; first compound 0.3162 µM): 0.815; relative viability ([7]; first compound 1 µM): 0.688; relative viability ([8]; first compound 0.01 µM): 0.37; relative viability ([8]; first compound 0.03162 µM): 0.415; relative viability ([8]; first compound 0.1 µM): 0.438; relative viability ([8]; first compound 0.3162 µM): 0.314; relative viability ([8]; first compound 1 µM): 0.384; relative viability ([9]; first compound 0.03162 µM): 0.403; relative viability ([9]; first compound 0.1 µM): 0.357; relative viability ([9]; first compound 0.3162 µM): 0.428; relative viability ([9]; first compound 1 µM): 0.372; relative viability ([10]; first compound 0.01 µM): 0.494; relative viability ([10]; first compound 0.03162 µM): 0.504; relative viability ([10]; first compound 0.1 µM): 0.454; relative viability ([10]; first compound 0.3162 µM): 0.44; relative viability ([10]; first compound 1 µM): 0.384; relative viability ([11]; first compound 0.01 µM): 0.593; relative viability ([11]; first compound 0.03162 µM): 0.38; relative viability ([11]; first compound 0.1 µM): 0.233; relative viability ([11]; first compound 0.3162 µM): 0.505; relative viability ([11]; first compound 1 µM): 0.464; relative viability ([12]; first compound 0.01 µM): 0.541; relative viability ([12]; first compound 0.03162 µM): 0.527; relative viability ([12]; first compound 0.1 µM): 0.481; relative viability ([12]; first compound 0.3162 µM): 0.528; relative viability ([12]; first compound 1 µM): 0.438; relative viability ([13]; first compound 0.01 µM): 1; relative viability ([13]; first compound 0.03162 µM): 1.02; relative viability ([13]; first compound 0.1 µM): 0.887; relative viability ([13]; first compound 0.3162 µM): 1.05; relative viability ([13]; first compound 1 µM): 1.01; relative viability ([14]; first compound 0.01 µM): 1.37; relative viability ([14]; first compound 0.03162 µM): 1.23; relative viability ([14]; first compound 0.1 µM): 1.44; relative viability ([14]; first compound 0.3162 µM): 1.31; relative viability ([14]; first compound 1 µM): 1.36; relative viability ([15]; first compound 0.01 µM): 0.7; relative viability ([15]; first compound 0.03162 µM): 0.727; relative viability ([15]; first compound 0.1 µM): 0.552; relative viability ([15]; first compound 0.3162 µM): 0.787; relative viability ([15]; first compound 1 µM): 0.827; relative viability ([16]; first compound 0.01 µM): 1.11; relative viability ([16]; first compound 0.03162 µM): 1.15; relative viability ([16]; first compound 0.3162 µM): 1.15; relative viability ([16]; first compound 1 µM): 1.24; relative viability ([17]; first compound 0.01 µM): 0.918; relative viability ([17]; first compound 0.03162 µM): 0.963; relative viability ([17]; first compound 0.1 µM): 0.934; relative viability ([17]; first compound 0.3162 µM): 0.93; relative viability ([17]; first compound 1 µM): 0.924

`COc1nc(C)cnc1NS(=O)(=O)c1cccnc1-c1ccc(-c2nnco2)cc1` [Zibotentan] + NC(=O)Nc1cc(-c2cccc(F)c2)sc1C(=O)N[C@H]1CCCNC1 [AZD7762] (partner 0.2 µM) was tested. Which relative viability ([1]; first compound 0.08 µM) did it give?
Its relative viability is 0.912.

And the relative viability ([1]; first compound 0.253 µM)?
The relative viability was 0.842.

And the relative viability ([1]; first compound 0.8 µM)?
The relative viability was 0.756.

What about the relative viability ([1]; first compound 2.53 µM) of the same compound?
Its relative viability is 0.927.

And the relative viability ([2]; first compound 0.08 µM)?
Its relative viability is 1.08.

And the relative viability ([2]; first compound 0.8 µM)?
The relative viability was 1.08.

What about the relative viability ([2]; first compound 2.53 µM) of the same compound?
Its relative viability is 1.16.

What about the relative viability ([3]; first compound 0.08 µM) of the same compound?
Its relative viability is 0.217.

And the relative viability ([3]; first compound 0.253 µM)?
Its relative viability is 0.261.

What about the relative viability ([3]; first compound 0.8 µM) of the same compound?
Its relative viability is 0.168.

And the relative viability ([3]; first compound 2.53 µM)?
Its relative viability is 0.259.

What about the relative viability ([4]; first compound 0.08 µM) of the same compound?
Its relative viability is 0.901.

And the relative viability ([4]; first compound 0.253 µM)?
The relative viability was 0.87.

What about the relative viability ([4]; first compound 0.8 µM) of the same compound?
The relative viability was 0.825.

What about the relative viability ([4]; first compound 2.53 µM) of the same compound?
The relative viability was 0.799.

And the relative viability ([5]; first compound 0.08 µM)?
The relative viability was 1.01.

What about the relative viability ([5]; first compound 0.253 µM) of the same compound?
Its relative viability is 0.962.

What about the relative viability ([5]; first compound 0.8 µM) of the same compound?
The relative viability was 0.968.

And the relative viability ([5]; first compound 2.53 µM)?
The relative viability was 1.03.

What about the relative viability ([6]; first compound 0.08 µM) of the same compound?
The relative viability was 0.215.

And the relative viability ([6]; first compound 0.253 µM)?
The relative viability was 0.183.

And the relative viability ([6]; first compound 0.8 µM)?
The relative viability was 0.183.

And the relative viability ([6]; first compound 2.53 µM)?
Its relative viability is 0.223.

What about the relative viability ([7]; first compound 0.08 µM) of the same compound?
Its relative viability is 0.77.

What about the relative viability ([7]; first compound 0.253 µM) of the same compound?
Its relative viability is 0.786.

And the relative viability ([7]; first compound 0.8 µM)?
The relative viability was 0.778.

And the relative viability ([7]; first compound 2.53 µM)?
Its relative viability is 0.752.

What about the relative viability ([8]; first compound 0.08 µM) of the same compound?
Its relative viability is 0.425.

And the relative viability ([8]; first compound 0.253 µM)?
Its relative viability is 0.412.

What about the relative viability ([8]; first compound 0.8 µM) of the same compound?
The relative viability was 0.228.

And the relative viability ([8]; first compound 2.53 µM)?
The relative viability was 0.429.

And the relative viability ([9]; first compound 0.08 µM)?
The relative viability was 0.417.

What about the relative viability ([9]; first compound 0.253 µM) of the same compound?
Its relative viability is 0.349.

And the relative viability ([9]; first compound 0.8 µM)?
Its relative viability is 0.401.

What about the relative viability ([9]; first compound 2.53 µM) of the same compound?
The relative viability was 0.441.

And the relative viability ([10]; first compound 0.08 µM)?
The relative viability was 0.448.

What about the relative viability ([10]; first compound 0.253 µM) of the same compound?
The relative viability was 0.389.

And the relative viability ([10]; first compound 0.8 µM)?
The relative viability was 0.446.

And the relative viability ([10]; first compound 2.53 µM)?
Its relative viability is 0.419.

What about the relative viability ([11]; first compound 0.08 µM) of the same compound?
Its relative viability is 0.658.

What about the relative viability ([11]; first compound 0.253 µM) of the same compound?
Its relative viability is 0.341.

And the relative viability ([11]; first compound 0.8 µM)?
The relative viability was 0.37.

What about the relative viability ([11]; first compound 2.53 µM) of the same compound?
The relative viability was 0.495.

And the relative viability ([12]; first compound 0.08 µM)?
Its relative viability is 0.561.

And the relative viability ([12]; first compound 0.253 µM)?
Its relative viability is 0.487.

What about the relative viability ([12]; first compound 0.8 µM) of the same compound?
Its relative viability is 0.249.

What about the relative viability ([12]; first compound 2.53 µM) of the same compound?
Its relative viability is 0.548.

And the relative viability ([13]; first compound 0.08 µM)?
The relative viability was 1.06.

And the relative viability ([13]; first compound 0.253 µM)?
The relative viability was 0.953.

And the relative viability ([13]; first compound 0.8 µM)?
Its relative viability is 0.826.

What about the relative viability ([13]; first compound 2.53 µM) of the same compound?
Its relative viability is 0.959.

And the relative viability ([14]; first compound 0.08 µM)?
The relative viability was 1.28.

What about the relative viability ([14]; first compound 0.253 µM) of the same compound?
The relative viability was 1.22.

What about the relative viability ([14]; first compound 0.8 µM) of the same compound?
Its relative viability is 1.29.

What about the relative viability ([14]; first compound 2.53 µM) of the same compound?
The relative viability was 1.29.

What about the relative viability ([15]; first compound 0.08 µM) of the same compound?
Its relative viability is 0.766.

And the relative viability ([15]; first compound 0.253 µM)?
The relative viability was 0.701.

And the relative viability ([15]; first compound 0.8 µM)?
The relative viability was 0.654.

What about the relative viability ([15]; first compound 2.53 µM) of the same compound?
Its relative viability is 0.846.

And the relative viability ([16]; first compound 0.08 µM)?
The relative viability was 1.09.

And the relative viability ([16]; first compound 0.253 µM)?
The relative viability was 0.892.

And the relative viability ([16]; first compound 0.8 µM)?
The relative viability was 0.943.

And the relative viability ([16]; first compound 2.53 µM)?
Its relative viability is 1.11.

And the relative viability ([17]; first compound 0.08 µM)?
Its relative viability is 0.91.

What about the relative viability ([17]; first compound 0.253 µM) of the same compound?
Its relative viability is 0.909.

And the relative viability ([17]; first compound 0.8 µM)?
The relative viability was 0.912.

What about the relative viability ([17]; first compound 2.53 µM) of the same compound?
Its relative viability is 0.956.
